Experiment: xn = mol fraction of the nth substance listed
Conditions: 100.8 kPa, Liquid

CC(C)(C)O [2-methylpropan-2-ol] + CC(C)CC(C)(C)C
Conditions | mass density, 298.15 K [kg/m3] | mass density, 308.15 K [kg/m3] | mass density, 318.15 K [kg/m3] | viscosity, 298.15 K [mPa·s] | viscosity, 308.15 K [mPa·s] | viscosity, 318.15 K [mPa·s]
x1 = 0.05 | – | 681.15 | 672.12 | – | 0.425 | 0.377
x1 = 0.1 | – | 683.25 | 674.11 | – | 0.449 | 0.4
x1 = 0.15 | – | 685.62 | 676.56 | – | 0.447 | 0.394
x1 = 0.2 | – | 688.28 | 679.2 | – | 0.478 | 0.413
x1 = 0.25 | – | 691.11 | 681.96 | – | 0.48 | 0.42
x1 = 0.3 | – | 694.14 | 684.92 | – | 0.522 | 0.449
x1 = 0.35 | – | 697.38 | 688.11 | – | 0.523 | 0.45
x1 = 0.4 | – | 700.8 | 691.43 | – | 0.564 | 0.48
x1 = 0.45 | – | 704.42 | 694.99 | – | 0.59 | 0.504
x1 = 0.5 | – | 708.24 | 698.77 | – | 0.633 | 0.542
x1 = 0.55 | – | 712.37 | 702.81 | – | 0.672 | 0.564
x1 = 0.6 | – | 716.85 | 707.21 | – | 0.726 | 0.614
x1 = 0.65 | – | 721.69 | 711.98 | – | 0.786 | 0.649
x1 = 0.7 | – | 727.03 | 717.21 | – | 0.866 | 0.706
x1 = 0.75 | – | 732.81 | 722.88 | – | 0.994 | 0.798
x1 = 0.8 | 748.88 | 739.1 | 729.03 | 1.557 | 1.14 | 0.889
x1 = 0.85 | 755.87 | 745.89 | 735.65 | 1.895 | 1.332 | 1.028
x1 = 0.9 | 763.54 | 753.43 | 743.04 | 2.426 | 1.622 | 1.164
x1 = 0.95 | 771.9 | 761.62 | 751.07 | 3.172 | 2.02 | 1.398
x1 = 1 | 780.99 | 770.7 | 760.05 | 4.43 | 2.622 | 1.708

Reference: the NIST ThermoML archive (doi:10.1021/je0501639)
